In PubChem BioAssay (NCI):
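Values below derive from 48-hour exposures of cells grown in 96-well plates, with endpoints linearly interpolated between the two concentrations bracketing the appropriate inhibition level. Abbreviation: GI50, concentration required for 50% inhibition of growth. TGI: total growth inhibition.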

System: SF-295 CNS
Test: NCI-60 cell line screen, 48 h

SMILES | TGI [µM] | GI50 [µM]
C/C(N=NC(=S)N(C)C)=C1\C=CC=CN1O | > 100 | –
CCCSc1nc(COC(=O)NC)c(COC(=O)NC)n1C | > 100 | –
O=C1CCC(O)=C1N=Nc1ccccc1 | > 100 | –
C=C1CCC(CC[C@@H]2CC[C@]3(OC2)O[C@@]2(O)CC[C@]3(C)OC2(C)C)C(C)(C)[C@H]1C/C=C1/C(=O)OC[C@@H]1O (stereo partly specified) | 10.5 | –
C[C@]12CC[C@@H]3c4cc(OCC(F)(F)F)c(O)cc4/C(=N/O)C[C@H]3[C@@H]1CC[C@@H]2O | 1.95 | 0.0611
Cn1c(=O)c(Cc2ccccc2F)cc2cnc(NC3CCOCC3)nc21 | > 25 | > 25
COc1cc(/C=C/c2ccc(OC)c(OC)c2)cc(OC)c1 | 68.9 | –
CC1(C)[C@@H](OC(N)=O)[C@H]2O[C@H]2[C@]2(C=O)[C@H]3CC[C@]4(C)[C@@H](c5ccc(=O)oc5)[C@@H](Cl)C[C@]4(O)C3=CC[C@@H]12 | 0.0118 | 0.00522
CCCCON(OC(=O)c1ccc2ccc3cccc4ccc1c2c34)C(C)=O | > 100 | 30.3
Clc1ccc(C=Nc2ccc3c(c2)Cc2ccccc2-3)c(Cl)c1 | > 100 | –
CN(C)CCN1C(=O)c2ccc3c4c(ccc(c24)C1=O)C(=O)N(CCN=C=S)C3=O | 0.513 | 0.122
COc1ccc2nc(NC(=O)C(=O)C(C#N)c3ccc([N+](=O)[O-])cc3)sc2c1 (stereo unspecified) | > 100 | –
COc1ccc(/C=C/c2cc(OC)cc(=O)o2)cc1 | > 100 | –
O=C1CSC(c2ccc(Cl)cc2Cl)N1c1ccc(F)cc1 (stereo unspecified) | 37.2 | 18.3
O=C(O)[C@H](NS(=O)(=O)c1ccc([N+](=O)[O-])cc1)c1ccccc1 | > 100 | –
S=C1OC2CCCC[C@H]2O1 (stereo partly specified) | > 100 | –

System: M14 melanoma
Test: NCI-60 cell line screen, 48 h

SMILES | TGI [µM] | GI50 [µM]
C=CCc1ccc(Oc2cc(CC=C)c3c(c2O)O[C@@H](CO)[C@H]3c2ccc(O)c(-c3cc(CC=C)ccc3O)c2)cc1 | > 100 | –
O=S(=O)(Nc1cc(Sc2cccc3cccnc23)c(O)c2ccccc12)c1ccccc1 | 9.2 | 1.12
O=C(NCO)NCOCn1c(=O)n(CO)c(=O)n(CO)c1=O | 31.7 | –
CN(C)C(=O)[C@H](O)[C@H](Cc1ccccc1)NC(=O)c1cc2cc(Cl)ccc2[nH]1 | 67.6 | 23.2
CC(C)(C[C@H]1CN(S(=O)(=O)c2cccc(C(F)(F)F)c2)c2cc(-c3cc(F)cc(OC(F)F)c3)ccc2O1)C(=O)O | 17.5 | 4.59
Cc1ccc(-c2nc3ccc(Cl)cc3c(=O)n2N2C(=O)CSC2c2ccccc2Cl)cc1 (stereo unspecified) | > 100 | 56.2
O=C(O)C1C(Br)(c2ccccc2)C1(Br)c1ccccc1 (stereo unspecified) | > 100 | –
C#Cc1c(I)n(C2OC(CO[Si](C)(C)C(C)(C)C)C3OC(C)(C)OC32)c(=O)[nH]c1=O (stereo unspecified) | 33.3 | 16.3
CCSc1nc(SCC)c2cn[nH]c2n1 | > 100 | > 100
ClCC[N+]12CC[N+](CCCl)(CC1)C2 | > 100 | –
COc1ccc(CCN2COc3c([C@@H](C)CCC=C(C)C)ccc(C)c3C2)cc1OC | 3.18 | 1.69
COc1cc(C(=O)c2cc(C)c3[nH]c4ccc(C)cc4c3c2C)cc(OC)c1OC | > 100 | < 0.01
C=C1C(=O)OC2/C=C(\COC(C)=O)CCC(OC(C)=O)C3=CC(OC3=O)C12 (stereo unspecified) | 10 | –
Cc1ccc2[nH]c(O)c(N=Nc3ccc(S(N)(=O)=O)cc3)c2c1 | > 25 | > 25
C/C(N=NC(=S)N(C)C)=C1\C=CC=CN1O | > 100 | –
CCCSc1nc(COC(=O)NC)c(COC(=O)NC)n1C | > 100 | –
O=C1CCC(O)=C1N=Nc1ccccc1 | > 100 | –
C=C1CCC(CC[C@@H]2CC[C@]3(OC2)O[C@@]2(O)CC[C@]3(C)OC2(C)C)C(C)(C)[C@H]1C/C=C1/C(=O)OC[C@@H]1O (stereo partly specified) | 12.3 | –
C[C@]12CC[C@@H]3c4cc(OCC(F)(F)F)c(O)cc4/C(=N/O)C[C@H]3[C@@H]1CC[C@@H]2O | 16.9 | 0.0513
Cn1c(=O)c(Cc2ccccc2F)cc2cnc(NC3CCOCC3)nc21 | > 25 | > 25
COc1cc(/C=C/c2ccc(OC)c(OC)c2)cc(OC)c1 | 67.9 | –
CC1(C)[C@@H](OC(N)=O)[C@H]2O[C@H]2[C@]2(C=O)[C@H]3CC[C@]4(C)[C@@H](c5ccc(=O)oc5)[C@@H](Cl)C[C@]4(O)C3=CC[C@@H]12 | 0.0177 | 0.00639
CCCCON(OC(=O)c1ccc2ccc3cccc4ccc1c2c34)C(C)=O | 55.3 | 22.7
Clc1ccc(C=Nc2ccc3c(c2)Cc2ccccc2-3)c(Cl)c1 | > 100 | –
CN(C)CCN1C(=O)c2ccc3c4c(ccc(c24)C1=O)C(=O)N(CCN=C=S)C3=O | 0.216 | 0.0735
COc1ccc2nc(NC(=O)C(=O)C(C#N)c3ccc([N+](=O)[O-])cc3)sc2c1 (stereo unspecified) | > 100 | –
COc1ccc(/C=C/c2cc(OC)cc(=O)o2)cc1 | > 100 | –
O=C1CSC(c2ccc(Cl)cc2Cl)N1c1ccc(F)cc1 (stereo unspecified) | 28.8 | 15.2
O=C(O)[C@H](NS(=O)(=O)c1ccc([N+](=O)[O-])cc1)c1ccccc1 | > 100 | –
S=C1OC2CCCC[C@H]2O1 (stereo partly specified) | > 100 | –

System: RXF 393 renal
Test: NCI-60 cell line screen, 48 h

SMILES | TGI [µM] | GI50 [µM]
C=CCc1ccc(Oc2cc(CC=C)c3c(c2O)O[C@@H](CO)[C@H]3c2ccc(O)c(-c3cc(CC=C)ccc3O)c2)cc1 | > 100 | –
O=S(=O)(Nc1cc(Sc2cccc3cccnc23)c(O)c2ccccc12)c1ccccc1 | 12.3 | 2.4
O=C(NCO)NCOCn1c(=O)n(CO)c(=O)n(CO)c1=O | 30.8 | –
CN(C)C(=O)[C@H](O)[C@H](Cc1ccccc1)NC(=O)c1cc2cc(Cl)ccc2[nH]1 | 62.9 | 20
CC(C)(C[C@H]1CN(S(=O)(=O)c2cccc(C(F)(F)F)c2)c2cc(-c3cc(F)cc(OC(F)F)c3)ccc2O1)C(=O)O | 24.2 | 8.43
Cc1ccc(-c2nc3ccc(Cl)cc3c(=O)n2N2C(=O)CSC2c2ccccc2Cl)cc1 (stereo unspecified) | > 100 | 6.46
O=C(O)C1C(Br)(c2ccccc2)C1(Br)c1ccccc1 (stereo unspecified) | 41.7 | –
C#Cc1c(I)n(C2OC(CO[Si](C)(C)C(C)(C)C)C3OC(C)(C)OC32)c(=O)[nH]c1=O (stereo unspecified) | 14.2 | 3.68
CCSc1nc(SCC)c2cn[nH]c2n1 | > 100 | 29
ClCC[N+]12CC[N+](CCCl)(CC1)C2 | > 100 | –
COc1ccc(CCN2COc3c([C@@H](C)CCC=C(C)C)ccc(C)c3C2)cc1OC | 4.85 | 1.73
COc1cc(C(=O)c2cc(C)c3[nH]c4ccc(C)cc4c3c2C)cc(OC)c1OC | 4.84 | < 0.01
C=C1C(=O)OC2/C=C(\COC(C)=O)CCC(OC(C)=O)C3=CC(OC3=O)C12 (stereo unspecified) | 3.28 | –
Cc1ccc2[nH]c(O)c(N=Nc3ccc(S(N)(=O)=O)cc3)c2c1 | 17.5 | 5.27
C/C(N=NC(=S)N(C)C)=C1\C=CC=CN1O | > 100 | –
CCCSc1nc(COC(=O)NC)c(COC(=O)NC)n1C | > 100 | –
O=C1CCC(O)=C1N=Nc1ccccc1 | > 100 | –
C=C1CCC(CC[C@@H]2CC[C@]3(OC2)O[C@@]2(O)CC[C@]3(C)OC2(C)C)C(C)(C)[C@H]1C/C=C1/C(=O)OC[C@@H]1O (stereo partly specified) | 4.88 | –
C[C@]12CC[C@@H]3c4cc(OCC(F)(F)F)c(O)cc4/C(=N/O)C[C@H]3[C@@H]1CC[C@@H]2O | 0.135 | 0.0322
Cn1c(=O)c(Cc2ccccc2F)cc2cnc(NC3CCOCC3)nc21 | > 25 | > 18.4
COc1cc(/C=C/c2ccc(OC)c(OC)c2)cc(OC)c1 | 50 | –
CC1(C)[C@@H](OC(N)=O)[C@H]2O[C@H]2[C@]2(C=O)[C@H]3CC[C@]4(C)[C@@H](c5ccc(=O)oc5)[C@@H](Cl)C[C@]4(O)C3=CC[C@@H]12 | 0.237 | 0.00717
CCCCON(OC(=O)c1ccc2ccc3cccc4ccc1c2c34)C(C)=O | 50.2 | 19.7
Clc1ccc(C=Nc2ccc3c(c2)Cc2ccccc2-3)c(Cl)c1 | > 100 | –
CN(C)CCN1C(=O)c2ccc3c4c(ccc(c24)C1=O)C(=O)N(CCN=C=S)C3=O | 0.177 | 0.0416
COc1ccc2nc(NC(=O)C(=O)C(C#N)c3ccc([N+](=O)[O-])cc3)sc2c1 (stereo unspecified) | > 100 | –
COc1ccc(/C=C/c2cc(OC)cc(=O)o2)cc1 | > 100 | –
O=C1CSC(c2ccc(Cl)cc2Cl)N1c1ccc(F)cc1 (stereo unspecified) | 56 | 27.4
O=C(O)[C@H](NS(=O)(=O)c1ccc([N+](=O)[O-])cc1)c1ccccc1 | > 100 | –
